Source: US12662491B2 (Redona Therapeutics, Inc., priority 2020, dated 2026)

Molecular target: T1, Zcchc11 enzyme (Homo sapiens, UniProt Q5TAX3)
T1 construct: made in house; host or cells: HEK293 cells (Zcchc11); E. coli Rosetta II (LIN28A)
T1 sequence (Q5TAX3 212-1420): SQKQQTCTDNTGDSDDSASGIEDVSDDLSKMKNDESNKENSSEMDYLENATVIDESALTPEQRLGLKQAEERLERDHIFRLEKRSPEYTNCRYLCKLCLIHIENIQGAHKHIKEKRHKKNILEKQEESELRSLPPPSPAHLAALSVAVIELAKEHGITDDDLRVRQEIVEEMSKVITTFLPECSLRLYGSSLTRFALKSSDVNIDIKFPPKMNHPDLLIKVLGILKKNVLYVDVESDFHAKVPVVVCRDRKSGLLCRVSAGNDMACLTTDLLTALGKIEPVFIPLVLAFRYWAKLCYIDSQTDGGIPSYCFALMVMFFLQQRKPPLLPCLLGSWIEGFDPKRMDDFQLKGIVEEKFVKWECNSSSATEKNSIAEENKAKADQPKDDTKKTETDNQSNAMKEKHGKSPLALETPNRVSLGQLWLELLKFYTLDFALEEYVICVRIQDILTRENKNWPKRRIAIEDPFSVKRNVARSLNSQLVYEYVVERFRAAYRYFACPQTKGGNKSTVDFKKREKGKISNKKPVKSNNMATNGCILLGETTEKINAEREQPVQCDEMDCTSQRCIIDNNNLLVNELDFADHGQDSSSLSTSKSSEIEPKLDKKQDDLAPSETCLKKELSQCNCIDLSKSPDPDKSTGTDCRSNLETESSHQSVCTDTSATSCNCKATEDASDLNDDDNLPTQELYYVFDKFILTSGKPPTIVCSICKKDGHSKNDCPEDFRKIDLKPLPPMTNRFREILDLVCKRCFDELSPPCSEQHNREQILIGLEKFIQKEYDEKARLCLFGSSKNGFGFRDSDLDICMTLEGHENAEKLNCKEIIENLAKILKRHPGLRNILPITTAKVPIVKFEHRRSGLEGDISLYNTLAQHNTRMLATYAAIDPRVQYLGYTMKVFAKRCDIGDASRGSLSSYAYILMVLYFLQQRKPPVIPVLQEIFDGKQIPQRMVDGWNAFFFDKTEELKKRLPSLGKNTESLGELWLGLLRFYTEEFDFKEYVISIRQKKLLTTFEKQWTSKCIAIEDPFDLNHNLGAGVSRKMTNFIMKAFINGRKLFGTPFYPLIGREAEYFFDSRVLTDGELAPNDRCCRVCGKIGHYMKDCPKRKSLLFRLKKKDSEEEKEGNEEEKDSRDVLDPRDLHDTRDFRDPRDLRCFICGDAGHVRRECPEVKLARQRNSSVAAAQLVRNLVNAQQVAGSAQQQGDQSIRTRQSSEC
Test: TUTase assay (Zcchc11 assay, Lin28a-dependent polyuridylation of pre-let-7)
Assay type: biochemical
Conditions: Lin28a-dependent Zcchc11 (Z11) TUTase assay; read-out: Potency Lin28a-dep Z11 IC50
How it was run: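 Readout: time-dependent quench of 5′-fluorescein pre-let-7 (2 nM) as 3′-rhodamine A20 probe anneals to poly(U) tails. Enzyme 0.2 nM Zcchc11 (res. 212-1420), LIN28A 10 nM, UTP 5 uM; pH 7.3 HEPES, 150 mM KCl, 5 mM MgCl2, RT. 4-parameter IC50; 100% = DMSO, 0% = no UTP.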

**Q.** With `N#Cc1cc2c(=O)c(C(=O)O)cn(C3CCn4ccnc4C3)c2cc1N1CCC[C@@H]1COc1ncccc1Cl` (stereo partly drawn) [Example 540, 7-((R)-2-(((3-chloropyridin-2-yl)oxy)methyl)pyrrolidin-1-yl)-6-cyano-4-oxo-1-(5,6,7,8-tetrahydroimidazo [1,2-a]pyridin-7-yl)-1,4-dihydroquinoline-3-carboxylic acid] as the compound, how does the IC50 read?
**A.** ≤ 1 µM

**Q.** How did the IC50 turn out when `O=C(O)c1cn(-c2ccncn2)c2cc(N3CCC[C@@H]3COc3ncccc3Cl)c(Cl)cc2c1=O` [Example 541, (R)-6-chloro-7-(2-(((3-chloropyridin-2-yl)oxy)methyl)pyrrolidin-1-yl)-4-oxo-1-(pyrimidin-4-yl)-1,4-dihydroquinoline-3-carboxylic acid] was run?
**A.** ≤ 1 µM

**Q.** With `CN(C)C1CN(c2ccc(-n3cc(C(=O)O)c(=O)c4cc(C#N)c(N5CCC[C@@H]5COc5ncccc5Cl)cc43)cn2)C1` [Example 542, (R)-7-(2-(((3-chloropyridin-2-yl)oxy)methyl)pyrrolidin-1-yl)-6-cyano-1-(6-(3-(dimethylamino)azetidin-1-yl)pyridin-3-yl)-4-oxo-1,4-dihydroquinoline-3-carboxylic acid] as the compound, how does the IC50 read?
**A.** ≤ 1 µM

**Q.** With `O=C(O)c1cn(-c2ccnc(N3CCC3)c2)c2nc(N3CCC[C@@H]3COc3ncccc3Cl)c(Cl)cc2c1=O` [Example 543, (R)-1-(2-(azetidin-1-yl)pyridin-4-yl)-6-chloro-7-(2-(((3-chloropyridin-2-yl)oxy)methyl)pyrrolidin-1-yl)-4-oxo-1,4-dihydro-1,8-naphthyridine-3-carboxylic acid] as the compound, how does the IC50 read?
**A.** ≤ 1 µM

**Q.** `CN(C)C1CN(c2cc(-n3cc(C(=O)O)c(=O)c4cc(Cl)c(N5CCC[C@@H]5COc5ncccc5Cl)nc43)ccn2)C1` [Example 544, (R)-6-chloro-7-(2-(((3-chloropyridin-2-yl)oxy)methyl)pyrrolidin-1-yl)-1-(2-(3-(dimethylamino)azetidin-1-yl)pyridin-4-yl)-4-oxo-1,4-dihydro-1,8-naphthyridine-3-carboxylic acid] was tested. Which IC50 did it give?
**A.** ≤ 1 µM

**Q.** For `Cc1cc2c(=O)c(C(=O)O)cn(-c3ccc(N4CC(N(C)C)C4)nc3)c2cc1N1CCC[C@@H]1COc1ncccc1C` [Example 545, (R)-1-(6-(3-(dimethylamino)azetidin-1-yl)pyridin-3-yl)-6-methyl-7-(2-(((3-methylpyridin-2-yl)oxy)methyl)pyrrolidin-1-yl)-4-oxo-1,4-dihydroquinoline-3-carboxylic acid], which IC50 is on record?
**A.** ≤ 1 µM

**Q.** For `CCc1cc2c(=O)c(C(=O)O)cn(-c3ccc(N4CC(N(C)C)C4)nc3)c2cc1N1CCC[C@@H]1COc1ncccc1Cl` [Example 546, (R)-7-(2-(((3-chloropyridin-2-yl)oxy)methyl)pyrrolidin-1-yl)-1-(6-(3-(dimethylamino)azetidin-1-yl)pyridin-3-yl)-6-ethyl-4-oxo-1,4-dihydroquinoline-3-carboxylic acid], which IC50 is on record?
**A.** ≤ 1 µM

**Q.** With `CN(C)C1CN(c2cc(-n3cc(C(=O)O)c(=O)c4cc(Cl)c(N5CCC[C@@H]5COc5ncccc5Cl)cc43)ccn2)C1` [Example 548, (R)-6-chloro-7-(2-(((3-chloropyridin-2-yl)oxy)methyl)pyrrolidin-1-yl)-1-(2-(3-(dimethylamino)azetidin-1-yl)pyridin-4-yl)-4-oxo-1,4-dihydroquinoline-3-carboxylic acid] as the compound, how does the IC50 read?
**A.** ≤ 1 µM

**Q.** How did the IC50 turn out when `O=C(O)c1cn(-c2cnc3[nH]ncc3n2)c2cc(N3CCC[C@@H]3COc3ncccc3Cl)c(Cl)cc2c1=O` [Example 549, (R)-6-chloro-7-(2-(((3-chloropyridin-2-yl)oxy)methyl)pyrrolidin-1-yl)-4-oxo-1-(1H-pyrazolo[3,4-b]pyrazin-5-yl)-1,4-dihydroquinoline-3-carboxylic acid] was run?
**A.** ≤ 1 µM

**Q.** For `CCc1cc2c(=O)c(C(=O)O)cn(-c3cnccn3)c2cc1N1CCC[C@@H]1COc1ncccc1Cl` [Example 551, (R)-7-(2-(((3-chloropyridin-2-yl)oxy)methyl)pyrrolidin-1-yl)-6-ethyl-4-oxo-1-(pyrazin-2-yl)-1,4-dihydroquinoline-3-carboxylic acid], which IC50 is on record?
**A.** ≤ 1 µM

**Q.** `O=C(O)c1cn(-c2ccnc(N3CCC3)c2)c2cc(N3CCC[C@@H]3COc3ccccn3)c(Cl)cc2c1=O` [Example 553, (R)-1-(2-(azetidin-1-yl)pyridin-4-yl)-6-chloro-4-oxo-7-(2-((pyridin-2-yloxy)methyl)pyrrolidin-1-yl)-1,4-dihydroquinoline-3-carboxylic acid] was tested. Which IC50 did it give?
**A.** ≤ 1 µM

**Q.** Which IC50 does the source give for `O=C(O)c1cn(-c2ccnc(N3CCC3)c2)c2cc(N3CCC[C@@H]3COc3ncccc3Cl)c(Cl)cc2c1=O` [Example 554, (R)-1-(2-(azetidin-1-yl)pyridin-4-yl)-6-chloro-7-(2-(((3-chloropyridin-2-yl)oxy)methyl)pyrrolidin-1-yl)-4-oxo-1,4-dihydroquinoline-3-carboxylic acid] here?
**A.** ≤ 1 µM

**Q.** With `Nc1ncc(-n2cc(C(=O)O)c(=O)c3cc(Cl)c(N4CCC[C@@H]4COc4ncccc4Cl)cc32)cn1` [Example 555, (R)-1-(2-aminopyrimidin-5-yl)-6-chloro-7-(2-(((3-chloropyridin-2-yl)oxy)methyl)pyrrolidin-1-yl)-4-oxo-1,4-dihydroquinoline-3-carboxylic acid] as the compound, how does the IC50 read?
**A.** ≤ 1 µM

**Q.** For `O=C(O)c1cn(Cc2ccccc2)c2cc(N3CCC[C@@H]3COc3ncccc3Cl)c(Cl)cc2c1=O` [Example 556, (R)-1-benzyl-6-chloro-7-(2-(((3-chloropyridin-2-yl)oxy)methyl)pyrrolidin-1-yl)-4-oxo-1,4-dihydroquinoline-3-carboxylic acid], which IC50 is on record?
**A.** 1 to 10 µM

**Q.** For `O=C(O)c1cn(Cc2cccnc2)c2cc(N3CCC[C@@H]3COc3ncccc3Cl)c(Cl)cc2c1=O` [Example 557, (R)-6-chloro-7-(2-(((3-chloropyridin-2-yl)oxy)methyl)pyrrolidin-1-yl)-4-oxo-1-(pyridin-3-ylmethyl)-1,4-dihydroquinoline-3-carboxylic acid], which IC50 is on record?
**A.** ≤ 1 µM

**Q.** Which IC50 does the source give for `COCCNc1ccc(-n2cc(C(=O)O)c(=O)c3cc(I)c(N4CCC[C@@H]4COc4ncccc4Cl)cc32)cn1` [Example 558, (R)-7-(2-(((3-chloropyridin-2-yl)oxy)methyl)pyrrolidin-1-yl)-6-iodo-1-(6-((2-methoxyethyl)amino)pyridin-3-yl)-4-oxo-1,4-dihydroquinoline-3-carboxylic acid] here?
**A.** ≤ 1 µM

**Q.** With `CN(C)C1CN(c2ccc(-n3cc(C(=O)O)c(=O)c4cc(C5CC5)c(N5CCC[C@@H]5COc5ncccc5Cl)cc43)cn2)C1` [Example 559, (R)-7-(2-(((3-chloropyridin-2-yl)oxy)methyl)pyrrolidin-1-yl)-6-cyclopropyl-1-(6-(3-(dimethylamino)azetidin-1-yl)pyridin-3-yl)-4-oxo-1,4-dihydroquinoline-3-carboxylic acid] as the compound, how does the IC50 read?
**A.** ≤ 1 µM

**Q.** For `O=C(O)c1cn(-c2ncc[nH]2)c2cc(N3CCC[C@@H]3COc3ncccc3Cl)c(Cl)cc2c1=O` [Example 560, (R)-6-chloro-7-(2-(((3-chloropyridin-2-yl)oxy)methyl)pyrrolidin-1-yl)-1-(1H-imidazol-2-yl)-4-oxo-1,4-dihydroquinoline-3-carboxylic acid], which IC50 is on record?
**A.** ≤ 1 µM

**Q.** Which IC50 does the source give for `CN1CCn2nc(-n3cc(C(=O)O)c(=O)c4cc(C#N)c(N5CCC[C@@H]5COc5ncccc5Cl)cc43)cc2C1` [Example 561, (R)-7-(2-(((3-chloropyridin-2-yl)oxy)methyl)pyrrolidin-1-yl)-6-cyano-1-(5-methyl-4,5,6,7-tetrahydropyrazolo [1,5-a]pyrazin-2-yl)-4-oxo-1,4-dihydroquinoline-3-carboxylic acid] here?
**A.** ≤ 1 µM
